Measurements published in PubChem BioAssay AID812 (SRMLSC, 2007).
The source made the active and inactive calls. How the calls were made is not given here.

The compounds below were run on Saccharomyces cerevisiae lifespan extension, no nicotinamide (assay: yeast lifespan extension without nicotinamide, confirmation, yeast lifespan extension project, S. cerevisiae (AID 812);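 further: growth read as optical density after 42 hours of incubation at 30C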).
With `Cc1[nH]nc2nc3c(c(OC(=O)c4ccccc4)c12)c(=O)n(C)c(=O)n3C` the EC50 was > 40 µM (inactive). For `O=C1Nc2cc(Cl)c(Cl)cc2N(O)N1c1cc(Cl)cc(Cl)c1`, the EC50 was > 40 µM (inactive). For `C/C=C/Cn1c(N2CCCCCC2)nc2c1c(=O)[nH]c(=O)n2C`, the EC50 was > 40 µM (inactive). For `CCCCCSc1nc2c(c(=O)[nH]c(=O)n2C)n1C`, the EC50 was > 40 µM (inactive). `CC(C)(C)C1CCc2[nH]nc(C(=O)O)c2C1` (stereo unspecified) was tested, and the EC50 was > 40 µM (inactive). With `Cc1cc2c(c(=O)n1CCc1ccccc1)C(c1ccco1)C(C#N)=C(N)O2` (stereo unspecified) the EC50 was > 40 µM (inactive). In the case of `O=C1c2ccccc2NC(c2ccc(Cl)cc2Cl)N1O` (stereo unspecified), the EC50 was > 40 µM (inactive). `CCCC(=O)C1C(=O)CC(CC(C)SCC)CC1=O` (stereo unspecified) was tested, and the EC50 was > 40 µM (inactive). In the case of `Cc1cc(C)nc(SCc2cc(=O)c(OC(=O)c3ccc(Br)o3)co2)n1`, the EC50 was > 40 µM (inactive). In the case of `O=C(NCCc1ccccn1)C(F)(F)C(F)(F)C(F)(F)C(F)(F)C(F)(F)C(F)(F)C(F)(F)C(F)F`, the EC50 was > 40 µM (inactive). In the case of `Cc1nn(-c2c(Cl)cc(Cl)cc2Cl)c(=O)c2ccccc12`, the EC50 was > 40 µM (inactive). For `CCCC(=O)Nc1ccccc1Sc1ncnc2scc(-c3ccccc3)c12`, the EC50 was > 40 µM (inactive). `CCCCCC(=O)N1CCN(CCN=CC2=C(O)CC(c3ccc(OC)c(OC)c3)CC2=O)CC1` (stereo unspecified) was tested, and the EC50 was > 40 µM (inactive). `CCOc1ccc(OCC(=O)c2c(O)c3ccccc3oc2=O)cc1` was tested, and the EC50 was > 40 µM (inactive). In the case of `Cc1n[nH]c(=O)n1-c1cccc(C(F)(F)F)c1`, the EC50 was > 40 µM (inactive). `COc1ccc(OC)c(C2C(C(C)=O)=C(O)C(=O)N2Cc2cccnc2)c1` (stereo unspecified) was tested, and the EC50 was > 40 µM (inactive). With `Cc1ccnc(N=Cc2c(O)ccc3oc4c(c23)CCCC4)c1` the EC50 was > 40 µM (inactive). For `O=C(/C=C/c1ccccc1)C1C(=O)c2ccccc2C1=O`, the EC50 was > 40 µM (inactive). For `Cc1cccc(NC(=O)c2c(O)c3cccc4c3n(c2=O)CCC4)n1`, the EC50 was > 40 µM (inactive). `CC(=NCCc1c(C)[nH]c2ccc(C)cc12)C1=C(O)CC(c2ccccc2)CC1=O` (stereo unspecified) was tested, and the EC50 was > 40 µM (inactive). For `CC(c1ccco1)N(C(=O)c1ccccc1NS(=O)(=O)c1cc([N+](=O)[O-])ccc1Cl)c1ccccn1` (stereo unspecified), the EC50 was > 40 µM (inactive). For `CCn1ncc(/C=N/NC(=O)c2ccc3c(c2)OCO3)c1C`, the EC50 was > 40 µM (inactive). In the case of `COc1ccc(NC(=S)N2CCN(CCN=CC3=C(O)CC(c4ccccc4)CC3=O)CC2)cc1` (stereo unspecified), the EC50 was > 40 µM (inactive). In the case of `CCOC(=O)COc1ccccc1/C=C\[N+](=O)[O-]`, the EC50 was > 40 µM (inactive). For `Cc1ccc(N2NC(=O)/C(=C\c3cc4c(cc3[N+](=O)[O-])OCO4)C2=O)cc1C`, the EC50 was > 40 µM (inactive). In the case of `CC1(C)CC(=O)c2sc(NS(C)(=O)=O)nc2C1`, the EC50 was > 40 µM (inactive). With `Cc1c(NC(=O)C(=O)/C=C(\O)c2ccc(Cl)cc2)c(=O)n(-c2ccccc2)n1C` the EC50 was > 40 µM (inactive). In the case of `CC(=O)Nc1nc(C)c(Oc2ccccc2)c(=O)[nH]1`, the EC50 was > 40 µM (inactive). With `CCc1nnc(N2C(=O)c3ccc(Oc4ccc([N+](=O)[O-])cc4)cc3C2=O)s1` the EC50 was > 40 µM (inactive). For `Oc1ccc2ccccc2c1C=Nc1ccc(N2CCOCC2)cc1`, the EC50 was > 40 µM (inactive). With `CN1C(=O)C(C(=O)Nc2ccccc2F)c2ccccc21` (stereo unspecified) the EC50 was > 40 µM (inactive). With `CCCc1[nH]nc2c1C(c1ccc(Br)s1)C(C#N)=C(N)O2` (stereo unspecified) the EC50 was > 40 µM (inactive). `CC1CCc2cc(F)cc3c(O)c(C(=O)NCc4ccco4)c(=O)n1c23` (stereo unspecified) was tested, and the EC50 was > 40 µM (inactive). In the case of `O=[N+]([O-])c1cc2oc3c(c2c(C=NCc2ccncc2)c1O)CCCC3`, the EC50 was > 40 µM (inactive). `COc1cnc(-c2ccccn2)nc1Sc1cccc(Cl)c1` was tested, and the EC50 was > 40 µM (inactive). For `C=CCN(CC=C)c1nc2ccccc2nc1C(C#N)C(=O)OC(C)C` (stereo unspecified), the EC50 was > 40 µM (inactive). For `CCCCCC1CC1C(=O)N/N=C/c1ccc(N(C)C)cc1` (stereo unspecified), the EC50 was > 40 µM (inactive). `C=C(CC)C(=O)c1ccc(OCC(=O)O)c(Cl)c1Cl` was tested, and the EC50 was > 40 µM (inactive). For `O=C1C(=C(O)c2ccccc2)C(=O)c2ccccc21`, the EC50 was > 40 µM (inactive). For `O=C1OC2(CCCCC2)OC(=O)C1=CNc1nc2ccccc2s1`, the EC50 was > 40 µM (inactive). For `CC1(C)Oc2ccccc2OC1(O)c1ccc2ccccc2n1` (stereo unspecified), the EC50 was > 40 µM (inactive). `C=C(C(=O)c1ccccc1)C(CC(=O)c1ccccc1)c1ccccc1` (stereo unspecified) was tested, and the EC50 was > 40 µM (inactive). `N#Cc1c(-c2ccccc2)c(-c2ccccc2)nn(CC(=O)NNC(=O)Nc2ccccc2)c1=O` was tested, and the EC50 was > 40 µM (inactive). With `COc1cccc(C2CC3C(=O)C=CC2N3Cc2ccccc2)c1` (stereo unspecified) the EC50 was > 40 µM (inactive). In the case of `COc1cc(/C=C/C(=O)c2c(O)cc(C)oc2=O)cc(OC)c1O`, the EC50 was > 40 µM (inactive). `O=C1CC(c2ccc(F)cc2)CC(O)=C1C=NCCN1CCN(C(=O)Nc2ccccc2)CC1` (stereo unspecified) was tested, and the EC50 was > 40 µM (inactive). `Cc1ccc(C(=O)c2no[n+]([O-])c2C(=O)c2ccc(C)cc2)cc1` was tested, and the EC50 was > 40 µM (inactive). In the case of `COC(=O)C(=O)/C=C(\O)c1ccc(C)cc1`, the EC50 was > 40 µM (inactive). `O=CN(/C=C1\Sc2ccccc2C1=O)Cc1ccccc1` was tested, and the EC50 was > 40 µM (inactive). In the case of `O=C(Nc1ccc(Br)cn1)c1cccc(-c2cc3ccccc3oc2=O)c1`, the EC50 was > 40 µM (inactive). With `CCCCC(=Nc1ccc(N)cc1)C1=C(O)C(C(=O)OC)C(C)(C)CC1=O` (stereo unspecified) the EC50 was > 40 µM (inactive). In the case of `COC(=O)c1sc2ncn(-n3c(C)ccc3C)c(=O)c2c1C`, the EC50 was > 40 µM (inactive). With `COCCCN(C(=S)Nc1cc(Cl)cc(Cl)c1)C(C)c1ccncc1` (stereo unspecified) the EC50 was > 40 µM (inactive). In the case of `COc1ccc(C(=O)On2c(-c3ccc(Br)cc3)nc3ccccc3c2=O)cc1`, the EC50 was > 40 µM (inactive). With `CCOC(=O)c1ccc2c(c1)n(CCO)c(C)[n+]2CC` the EC50 was > 40 µM (inactive). In the case of `COc1ccc(N(C(=O)C(C)C)S(=O)(=O)c2ccc(Cl)cc2)cc1`, the EC50 was > 40 µM (inactive). With `CNC(=S)NC1CC2CCCC(C1)N2Cc1ccco1` (stereo unspecified) the EC50 was > 40 µM (inactive). `Cc1nc2c(=O)n(C)c(=O)n(C)c2nc1Cl` was tested, and the EC50 was > 40 µM (inactive). In the case of `CCn1c(=O)c2ccccc2n2c(SCC(=O)N3CCCc4ccccc43)nnc12`, the EC50 was > 40 µM (inactive). With `CC(C)C(c1nnnn1Cc1ccccc1)N1CCN(Cc2ccc3c(c2)OCO3)CC1` (stereo unspecified) the EC50 was > 40 µM (inactive). With `CCCCCCC1C(C#N)=C(N)OC2=C1C(=O)CC(C)(C)C2` (stereo unspecified) the EC50 was > 40 µM (inactive). With `Cc1ccc(N(C)C(=O)Oc2ccc(C(=O)c3ccc(Cl)cc3)cc2)cc1` the EC50 was > 40 µM (inactive). In the case of `C/C(=N\NC(=O)c1ccccc1O)C1C(=O)c2ccccc2C1=O`, the EC50 was > 40 µM (inactive). With `CN(c1ccccc1)c1nc2ccsc2c(=O)s1` the EC50 was > 40 µM (inactive). `CC1=C(C#N)C2C(/C1=N/O)C2(C)C` (stereo unspecified) was tested, and the EC50 was > 40 µM (inactive). `CCCn1c(C)cc(C(=O)COc2ncnc3sccc23)c1C` was tested, and the EC50 was > 40 µM (inactive). For `CC(C)(C)C(=O)/C(=C/c1cccc([N+](=O)[O-])c1)n1cncn1`, the EC50 was > 40 µM (inactive). In the case of `CC(=O)N1CCN(CCN=CC2=C(O)CC(c3cccs3)CC2=O)CC1` (stereo unspecified), the EC50 was > 40 µM (inactive). In the case of `CCCCn1c(NS(=O)(=O)c2ccc(C)cc2)c(C(=O)OCC)c2nc3ccccc3nc21`, the EC50 was > 40 µM (inactive). For `CC1=CS(=O)(=O)CC1Sc1nc2ccccc2[nH]1` (stereo unspecified), the EC50 was > 40 µM (inactive). In the case of `O=C(Oc1ccc2c(c1)OCO2)C12CC3CC(CC(C3)C1)C2`, the EC50 was > 40 µM (inactive).
